Experimental data taken from the Kinase Knowledgebase extract (Sharma et al. 2016).
pKi: −log10 of the molar value.

Target: CDK2 (UniProt P24941)
Assay: Enzyme Assay
Conditions: for inhibition: concentration not given here

Row | Structure (SMILES) | inhibition [%] | pKi
1 | CC(CCc1ccccc1)NC(=O)c1ccc(Nc2nc(N)c(C(=O)c3c(F)cccc3F)s2)cc1 (configuration not stated) | -6 | –
2 | Cc1ccc(NC(=O)c2ccc(Nc3nc(N)c(C(=O)c4c(F)cccc4F)s3)cc2)cc1Cl | -1 | –
3 | Nc1nc(Nc2ccc(C(=O)NCCc3ccccc3)cc2)sc1C(=O)c1c(F)cccc1F | -19 | –
4 | COc1ccc(CNC(=O)c2ccc(Nc3nc(N)c(C(=O)c4c(F)cccc4F)s3)cc2)cc1OC | -2 | –
5 | Nc1nc(Nc2ccc(C(=O)Nc3ccc4ncsc4c3)cc2)sc1C(=O)c1c(F)cccc1F | 13 | –
6 | Cc1ccc(O)c(NC(=O)c2ccc(Nc3nc(N)c(C(=O)c4c(F)cccc4F)s3)cc2)c1 | -6 | –
7 | Nc1nc(Nc2ccc(C(=O)NCCc3ccncc3)cc2)sc1C(=O)c1c(F)cccc1F | -11 | –
8 | Cc1cccc(CN(C)C(=O)c2ccc(Nc3nc(N)c(C(=O)c4c(F)cccc4F)s3)cc2)n1 | -1 | –
9 | N#CCCSc1ccccc1NC(=O)c1ccc(Nc2nc(N)c(C(=O)c3c(F)cccc3F)s2)cc1 | -14 | –
10 | CCCCN(CCC#N)C(=O)c1ccc(Nc2nc(N)c(C(=O)c3c(F)cccc3F)s2)cc1 | 4 | –
11 | N#CCCN(Cc1ccccc1)C(=O)c1ccc(Nc2nc(N)c(C(=O)c3c(F)cccc3F)s2)cc1 | 0 | –
12 | N#CCCN(Cc1cccnc1)C(=O)c1ccc(Nc2nc(N)c(C(=O)c3c(F)cccc3F)s2)cc1 | -2 | –
13 | CCN(CC)CCN(C)C(=O)c1ccc(Nc2nc(N)c(C(=O)c3c(F)cccc3F)s2)cc1 | -9 | –
14 | Cc1cc(NC(=O)c2ccc(Nc3nc(N)c(C(=O)c4c(F)cccc4F)s3)cc2)ccc1C(C)C | -5 | –
15 | N#CCc1ccc(CNC(=O)c2ccc(Nc3nc(N)c(C(=O)c4c(F)cccc4F)s3)cc2)cc1 | – | 7.60
16 | CCCCN(CCCC)C(=O)c1ccc(Nc2nc(N)c(C(=O)c3c(F)cccc3F)s2)cc1 | -7 | –
17 | Nc1nc(Nc2ccc(C(=O)Nc3cccc(Br)c3)cc2)sc1C(=O)c1c(F)cccc1F | -8 | –
18 | Nc1nc(Nc2ccc(C(=O)Nc3cccc(F)c3)cc2)sc1C(=O)c1c(F)cccc1F | -6 | –

The remaining lines, values ahead:

Row | inhibition [%] | pKi | Structure (SMILES)
19 | -16 | – | COCCN(C)C(=O)c1ccc(Nc2nc(N)c(C(=O)c3c(F)cccc3F)s2)cc1
20 | -7 | – | COC(CN(C)C(=O)c1ccc(Nc2nc(N)c(C(=O)c3c(F)cccc3F)s2)cc1)OC
21 | -16 | – | CCCN(C(=O)c1ccc(Nc2nc(N)c(C(=O)c3c(F)cccc3F)s2)cc1)C(C)CC (configuration not stated)
22 | -6 | – | C=CCN(C)C(=O)c1ccc(Nc2nc(N)c(C(=O)c3c(F)cccc3F)s2)cc1
23 | -2 | – | Nc1nc(Nc2ccc(C(=O)NCCCO)cc2)sc1C(=O)c1c(F)cccc1F
24 | -23 | – | CN(C)C(=O)CN(C)C(=O)c1ccc(Nc2nc(N)c(C(=O)c3c(F)cccc3F)s2)cc1
25 | -11 | – | Nc1nc(Nc2ccc(C(=O)Nc3ccc(Cl)cc3CO)cc2)sc1C(=O)c1c(F)cccc1F
26 | -23 | – | Cc1cccc(N2CCN(C(=O)c3ccc(Nc4nc(N)c(C(=O)c5c(F)cccc5F)s4)cc3)CC2C)c1 (configuration not stated)
27 | -6 | – | CCSCCNC(=O)c1ccc(Nc2nc(N)c(C(=O)c3c(F)cccc3F)s2)cc1
28 | 0 | – | Nc1nc(Nc2ccc(C(=O)NCC3CC3)cc2)sc1C(=O)c1c(F)cccc1F
29 | -12 | – | Nc1nc(Nc2ccc(C(=O)NCCCCO)cc2)sc1C(=O)c1c(F)cccc1F
30 | -24 | – | Nc1nc(Nc2ccc(C(=O)N3CCCCC3CCO)cc2)sc1C(=O)c1c(F)cccc1F (configuration not stated)
31 | -7 | – | CC(=O)N[C@@H]1CCN(C(=O)c2ccc(Nc3nc(N)c(C(=O)c4c(F)cccc4F)s3)cc2)C1
32 | -4 | – | Nc1nc(Nc2ccc(C(=O)N3CCOCC3)cc2)sc1C(=O)c1c(F)cccc1F
33 | -9 | – | CN1CCN(C(=O)c2ccc(Nc3nc(N)c(C(=O)c4c(F)cccc4F)s3)cc2)CC1
34 | -20 | – | CC(C)C(C)NC(=O)c1ccc(Nc2nc(N)c(C(=O)c3c(F)cccc3F)s2)cc1 (configuration not stated)
35 | -12 | – | CCCCN(CCCCO)C(=O)c1ccc(Nc2nc(N)c(C(=O)c3c(F)cccc3F)s2)cc1
36 | -5 | – | CSCC[C@@H](CO)NC(=O)c1ccc(Nc2nc(N)c(C(=O)c3c(F)cccc3F)s2)cc1
37 | -3 | – | Nc1nc(Nc2ccc(C(=O)N3CCSC3)cc2)sc1C(=O)c1c(F)cccc1F
38 | -10 | – | CC(C)NC(=O)c1ccc(Nc2nc(N)c(C(=O)c3c(F)cccc3F)s2)cc1
39 | 0 | – | C#CCCN(C)C(=O)c1ccc(Nc2nc(N)c(C(=O)c3c(F)cccc3F)s2)cc1
40 | -17 | – | CN(C)CCN1CCN(C(=O)c2ccc(Nc3nc(N)c(C(=O)c4c(F)cccc4F)s3)cc2)CC1
41 | -20 | – | C=CCN(CC=C)C(=O)c1ccc(Nc2nc(N)c(C(=O)c3c(F)cccc3F)s2)cc1
42 | -14 | – | CN(C)CCCN1CCN(C(=O)c2ccc(Nc3nc(N)c(C(=O)c4c(F)cccc4F)s3)cc2)CC1
